Reference: ChEMBL document CHEMBL1909046, “DrugMatrix in vitro pharmacology data”

Key:
[1] = molecular target: Beta-3 adrenergic receptor (Homo sapiens, UniProt P13945); assay: DRUGMATRIX: Adrenergic beta3 radioligand binding (ligand: [125I] Cyanopindolol); assay type: cell membranes, HEK293, Membrane; details: hek293; Not Active = under 50% inhibition at 10 µM
[2] = molecular target: Aldo-keto reductase family 1 member B1 (Rattus norvegicus, UniProt P07943); assay: biochemical; assay type: tissue-based, Lens of camera-type eye;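 note: inhibition of aldose reductase enzyme activity, measured with DL-glyceraldehyde as the substrate; in other assays of this panel Not Active means under 50% inhibition at 10 µM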
[3] = DRUGMATRIX: Glutamate, NMDA, Agonism radioligand binding (ligand: [3H] CGP-39653); assay type: cell membranes, Rattus norvegicus, Wistar, Cerebral cortex, Membrane; details: Not Active = under 50% inhibition at 10 µM
[4] = molecular target: T1, 3-hydroxy-3-methylglutaryl-coenzyme A reductase (Homo sapiens, UniProt P04035); design: species or system Escherichia coli;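 note: enzyme inhibition assay of HMG-CoA reductase using radiolabeled [14C]HMG-CoA as substrate; in other assays of this panel Not Active means under 50% inhibition at 10 µM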
T1 sequence (P04035 whole entry): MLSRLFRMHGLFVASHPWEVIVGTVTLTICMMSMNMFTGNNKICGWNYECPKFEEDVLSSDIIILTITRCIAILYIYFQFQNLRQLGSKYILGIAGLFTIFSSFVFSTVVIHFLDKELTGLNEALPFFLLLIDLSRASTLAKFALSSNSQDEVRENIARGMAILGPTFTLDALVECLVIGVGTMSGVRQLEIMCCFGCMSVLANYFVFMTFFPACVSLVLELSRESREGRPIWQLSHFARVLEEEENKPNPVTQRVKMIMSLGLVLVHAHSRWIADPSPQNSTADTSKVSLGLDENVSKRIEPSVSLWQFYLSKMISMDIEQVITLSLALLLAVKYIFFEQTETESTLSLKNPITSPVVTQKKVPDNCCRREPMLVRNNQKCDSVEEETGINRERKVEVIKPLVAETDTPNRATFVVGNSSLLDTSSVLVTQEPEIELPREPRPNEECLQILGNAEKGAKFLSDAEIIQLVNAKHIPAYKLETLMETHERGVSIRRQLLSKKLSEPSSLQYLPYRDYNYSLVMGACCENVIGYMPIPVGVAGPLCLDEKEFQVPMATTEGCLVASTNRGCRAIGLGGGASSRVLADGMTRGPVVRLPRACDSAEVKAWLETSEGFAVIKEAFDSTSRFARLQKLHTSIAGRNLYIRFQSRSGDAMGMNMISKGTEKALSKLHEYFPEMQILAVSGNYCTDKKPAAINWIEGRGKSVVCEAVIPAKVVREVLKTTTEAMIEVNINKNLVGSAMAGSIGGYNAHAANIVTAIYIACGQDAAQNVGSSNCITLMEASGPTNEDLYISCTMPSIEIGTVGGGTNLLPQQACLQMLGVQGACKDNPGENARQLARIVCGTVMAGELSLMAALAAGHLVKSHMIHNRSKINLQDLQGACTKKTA

[5] = molecular target: T2, Muscarinic acetylcholine receptor M4 (Homo sapiens, UniProt P08173); assay type: cell membranes, CHO-K1, Membrane; details: cho-k1; note: in other assays of this panel Not Active means under 50% inhibition at 10 µM
T2 sequence (P08173 whole entry): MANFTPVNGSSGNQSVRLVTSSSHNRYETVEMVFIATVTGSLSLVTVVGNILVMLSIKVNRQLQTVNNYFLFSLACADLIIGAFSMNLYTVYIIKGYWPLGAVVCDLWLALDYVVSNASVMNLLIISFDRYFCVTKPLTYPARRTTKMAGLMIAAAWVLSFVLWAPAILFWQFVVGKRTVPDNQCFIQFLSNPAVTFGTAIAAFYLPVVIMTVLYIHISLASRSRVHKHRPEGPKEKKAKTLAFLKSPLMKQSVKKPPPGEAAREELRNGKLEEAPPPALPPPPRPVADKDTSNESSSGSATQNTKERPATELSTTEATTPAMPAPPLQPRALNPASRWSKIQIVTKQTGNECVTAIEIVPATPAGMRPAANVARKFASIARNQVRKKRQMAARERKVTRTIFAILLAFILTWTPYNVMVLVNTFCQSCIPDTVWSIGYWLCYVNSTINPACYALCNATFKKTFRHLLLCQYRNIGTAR

[6] = DRUGMATRIX: Nicotinic Acetylcholine radioligand binding (ligand: [125I] Epibatidine); assay type: cell membranes, Membrane; details: imr-32; Not Active = under 50% inhibition at 10 µM
[7] = molecular target: T3, Angiotensin-converting enzyme (Oryctolagus cuniculus, UniProt P12822); assay type: tissue-based, Lung;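 note: enzymatic inhibition of angiotensin-converting enzyme measured with FAPGG as the substrate; in other assays of this panel Not Active means under 50% inhibition at 10 µM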
T3 sequence (P12822 whole entry): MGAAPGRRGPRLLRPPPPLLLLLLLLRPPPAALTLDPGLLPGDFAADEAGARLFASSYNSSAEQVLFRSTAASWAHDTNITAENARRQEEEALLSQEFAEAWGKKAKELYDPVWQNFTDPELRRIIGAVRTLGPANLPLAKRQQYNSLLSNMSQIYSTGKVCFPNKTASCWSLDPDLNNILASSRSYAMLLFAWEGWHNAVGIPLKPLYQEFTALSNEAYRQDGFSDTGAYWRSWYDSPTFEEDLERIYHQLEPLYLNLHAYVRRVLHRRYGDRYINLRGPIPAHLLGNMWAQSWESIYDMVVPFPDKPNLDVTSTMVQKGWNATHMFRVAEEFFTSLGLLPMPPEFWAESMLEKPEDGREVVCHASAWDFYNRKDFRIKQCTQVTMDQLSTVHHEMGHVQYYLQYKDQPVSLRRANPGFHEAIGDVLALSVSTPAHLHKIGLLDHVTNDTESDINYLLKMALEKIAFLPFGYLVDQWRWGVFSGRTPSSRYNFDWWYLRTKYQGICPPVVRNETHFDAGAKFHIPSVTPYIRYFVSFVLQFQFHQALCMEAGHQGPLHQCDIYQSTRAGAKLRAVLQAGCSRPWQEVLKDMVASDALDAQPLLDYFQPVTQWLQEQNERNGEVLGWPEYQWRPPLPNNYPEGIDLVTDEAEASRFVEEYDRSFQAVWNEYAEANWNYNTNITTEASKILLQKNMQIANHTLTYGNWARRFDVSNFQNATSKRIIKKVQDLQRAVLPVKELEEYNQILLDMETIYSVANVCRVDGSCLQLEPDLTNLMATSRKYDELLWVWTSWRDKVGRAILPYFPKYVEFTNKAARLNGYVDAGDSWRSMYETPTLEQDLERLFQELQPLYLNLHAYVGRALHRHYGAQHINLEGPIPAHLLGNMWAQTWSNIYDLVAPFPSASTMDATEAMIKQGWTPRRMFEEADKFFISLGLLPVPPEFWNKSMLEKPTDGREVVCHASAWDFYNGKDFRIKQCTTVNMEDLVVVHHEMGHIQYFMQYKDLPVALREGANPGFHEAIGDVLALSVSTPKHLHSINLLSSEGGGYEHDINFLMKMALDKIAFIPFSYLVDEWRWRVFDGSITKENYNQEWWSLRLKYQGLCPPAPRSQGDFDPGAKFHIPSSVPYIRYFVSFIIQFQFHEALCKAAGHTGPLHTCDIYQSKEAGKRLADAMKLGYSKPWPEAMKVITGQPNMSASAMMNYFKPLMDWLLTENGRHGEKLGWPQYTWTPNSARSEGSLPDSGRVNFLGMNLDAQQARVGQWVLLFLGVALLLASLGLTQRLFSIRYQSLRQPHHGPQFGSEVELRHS

Chain of Beta-3 adrenergic receptor (P13945 whole entry): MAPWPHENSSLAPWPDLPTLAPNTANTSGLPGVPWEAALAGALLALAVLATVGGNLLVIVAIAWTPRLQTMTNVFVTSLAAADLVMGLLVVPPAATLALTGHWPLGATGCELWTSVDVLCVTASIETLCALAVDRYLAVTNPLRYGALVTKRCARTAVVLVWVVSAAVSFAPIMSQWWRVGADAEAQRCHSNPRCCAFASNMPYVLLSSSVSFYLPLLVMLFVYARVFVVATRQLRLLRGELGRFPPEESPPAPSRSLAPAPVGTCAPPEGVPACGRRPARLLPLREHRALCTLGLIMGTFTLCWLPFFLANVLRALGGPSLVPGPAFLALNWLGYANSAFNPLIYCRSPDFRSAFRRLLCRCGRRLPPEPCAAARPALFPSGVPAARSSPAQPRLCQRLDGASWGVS

CC(=O)O[C@]1(C(C)=O)CC[C@H]2[C@@H]3C=C(C)C4=CC(=O)CC[C@]4(C)[C@H]3CC[C@@]21C [MEGESTROL ACETATE]
Not Active: IC50 [1] | IC50 [2] | IC50 [3] | Ki [3] | IC50 [4] | IC50 [5] | IC50 [6] | Ki [6] | IC50 [7]

COc1ccccc1OCC(O)COC(N)=O (configuration not stated) [METHOCARBAMOL]
Not Active: IC50 [1] | IC50 [2] | IC50 [3] | Ki [3] | IC50 [4] | IC50 [5] | IC50 [6] | Ki [6] | IC50 [7]

CN(Cc1cnc2nc(N)nc(N)c2n1)c1ccc(C(=O)N[C@@H](CCC(=O)O)C(=O)O)cc1 [METHOTREXATE]
Not Active: IC50 [1] | IC50 [2] | IC50 [3] | Ki [3] | IC50 [4] | IC50 [5] | IC50 [6] | Ki [6] | IC50 [7]

COC(=O)c1ccccc1O [METHYL SALICYLATE]
Not Active: IC50 [1] | IC50 [2] | IC50 [3] | Ki [3] | IC50 [4] | IC50 [5] | IC50 [6] | Ki [6] | IC50 [7]

COc1ccc2cc(CCC(C)=O)ccc2c1 [NABUMETONE]
Not Active: IC50 [1] | IC50 [2] | IC50 [3] | Ki [3] | IC50 [4] | IC50 [5] | IC50 [6] | Ki [6] | IC50 [7]

O=C(O)c1cccnc1 [NIACIN]
Not Active: IC50 [1] | IC50 [2] | IC50 [3] | Ki [3] | IC50 [4] | IC50 [5] | IC50 [6] | Ki [6] | IC50 [7]

CNC(=C[N+](=O)[O-])NCCSCc1csc(CN(C)C)n1 [NIZATIDINE]
Not Active: IC50 [1] | IC50 [2] | IC50 [3] | Ki [3] | IC50 [4] | IC50 [5] | IC50 [6] | Ki [6] | IC50 [7]

C[C@]12C/C(=C/O)C(=O)C[C@@H]1CC[C@@H]1[C@@H]2CC[C@@]2(C)[C@H]1CC[C@]2(C)O [OXYMETHOLONE]
Not Active: IC50 [1] | IC50 [2] | IC50 [3] | Ki [3] | IC50 [4] | IC50 [5] | IC50 [6] | Ki [6] | IC50 [7]
